Data: the supplement of paper PMC11208160

Test: recombinant UMI read abundance after kanamycin selection (control-corrected) (log10(CPM+1)); higher = more efficient recombination; extreme values may be limits of the assay; sequences stand for … in AGTGCAGAGAAAATCGGCCAGTTTTCTCTGCCTGCAGTCCGCATGCCGTGGGACCCCTTGGGTTCTAACCTGTTGCCTAGATTTATGCAGCGGACTGCCTTTCTCCCAAAGTGATAAACCGG…AGGTTGGTTTCACT; site = the 11-nt donor
Outline: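 Values are reported as log10(CPM+1), obtained by converting sequencing counts to CPM, averaging replicates and scaling by control-derived factors. The counts came from recombinant UMIs amplified by PCR across the donor–target junction. These UMIs came from a pooled Escherichia coli screen of donor and donor-binding-loop pairs for the IS621 bridge recombinase, plated with IPTG (0.07 mM) plus kanamycin or left unselected, in two replicates each.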
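Note: IS621 bridge recombinase in Escherichia coli cells against a fixed T5 target plasmid.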

Row | Sequence | recombinant UMI read abundance (log10)
1 | CTGCTACCATGGACCGGTTTTCCCGGTAATCCGTATTTGCT (site CTCCTACCTAG) | 0
2 | CTGCTACCATGGACCGGTTTTCCCGGTAATCCGTATTTGCT (site CTGATACCTAG) | 0
3 | CTGCTACCATGGACCGGTTTTCCCGGTAATCCGTATTTGCT (site CTGCAACCTAG) | 0
4 | CTGCTACCATGGACCGGTTTTCCCGGTAATCCGTATTTGCT (site CTGCCACCTAG) | 0.00361
5 | CTGCTACCATGGACCGGTTTTCCCGGTAATCCGTATTTGCT (site CTGCGACCTAG) | 0
6 | CTGCTACCATGGACCGGTTTTCCCGGTAATCCGTATTTGCT (site CTGCTAACTAG) | 0.00893
7 | CTGCTACCATGGACCGGTTTTCCCGGTAATCCGTATTTGCT (site CTGCTACCTAA) | 0.0092
8 | CTGCTACCATGGACCGGTTTTCCCGGTAATCCGTATTTGCT (site CTGCTACCTAC) | 0.00952
9 | CTGCTACCATGGACCGGTTTTCCCGGTAATCCGTATTTGCT (site CTGCTACCTAG) | 0
10 | CTGCTACCATGGACCGGTTTTCCCGGTAATCCGTATTTGCT (site CTGCTACCTAT) | 0
11 | CTGCTACCATGGACCGGTTTTCCCGGTAATCCGTATTTGCT (site CTGCTACCTCG) | 0.0163
12 | CTGCTACCATGGACCGGTTTTCCCGGTAATCCGTATTTGCT (site CTGCTACCTGG) | 0
13 | CTGCTACCATGGACCGGTTTTCCCGGTAATCCGTATTTGCT (site CTGCTACCTTG) | 0
14 | CTGCTACCATGGACCGGTTTTCCCGGTAATCCGTATTTGCT (site CTGCTAGCTAG) | 0
15 | CTGCTACCATGGACCGGTTTTCCCGGTAATCCGTATTTGCT (site CTGCTATCTAG) | 1.67
16 | CTGCTACCATGGACCGGTTTTCCCGGTAATCCGTATTTGCT (site CTGCTCCCTAG) | 0.543
17 | CTGCTACCATGGACCGGTTTTCCCGGTAATCCGTATTTGCT (site CTGCTGCCTAG) | 0.038
18 | CTGCTACCATGGACCGGTTTTCCCGGTAATCCGTATTTGCT (site CTGCTTCCTAG) | 0
19 | CTGCTACCATGGACCGGTTTTCCCGGTAATCCGTATTTGCT (site CTGGTACCTAG) | 0
20 | CTGCTACCATGGACCGGTTTTCCCGGTAATCCGTATTTGCT (site CTGTTACCTAG) | 0
21 | CTGCTACCATGGACCGGTTTTCCCGGTAATCCGTATTTGCT (site CTTCTACCTAG) | 0
22 | CTGCTACCATGGACCGGTTTTCCCGGTAATCCGTATTTGCT (site GTGCTACCTAG) | 0
23 | CTGCTACCATGGACCGGTTTTCCCGGTAATCCGTATTTGCT (site TTGCTACCTAG) | 0.00622
24 | CTGCTCTCATGGACCGGTTTTCCCGGTAATCCGTATTTGTA (site CTACTCTCTTA) | 2.71
25 | CTGCTCTCATGGACCGGTTTTCCCGGTAATCCGTATTTGTA (site CTCCTCTCTTA) | 0.876
26 | CTGCTCTCATGGACCGGTTTTCCCGGTAATCCGTATTTGTA (site CTGCTCTCTTA) | 2.98

Row | Sequence | recombinant UMI read abundance (log10)
27 | CTGCTCTCATGGACCGGTTTTCCCGGTAATCCGTATTTGTA (site CTTCTCTCTTA) | 1.06
28 | CTGCTGACATGGACCGGTTTTCCCGGTAATCCGTATTTGAC (site CTGCTGACTGT) | 1.02
29 | CTGCTTGCATGGACCGGTTTTCCCGGTAATCCGTATTTGAT (site CTGCTTGCTAT) | 2.21
30 | CTGGAAACATGGACCGGTTTTCCCGGTAATCCGTATTTGCT (site CTGGAAACTAG) | 2.45
31 | CTGGAAACATGGACCGGTTTTCCCGGTAATCCGTATTTGCT (site CTGGAAACTCG) | 0.534
32 | CTGGAAACATGGACCGGTTTTCCCGGTAATCCGTATTTGCT (site CTGGAAACTGG) | 1.1
33 | CTGGAAACATGGACCGGTTTTCCCGGTAATCCGTATTTGCT (site CTGGAAACTTG) | 0.49
34 | CTGGAAACATGGACCGGTTTTCCCGGTAATCCGTATTTGGA (site CTGGAAACTTA) | 0.993
35 | CTGGAAACATGGACCGGTTTTCCCGGTAATCCGTATTTGGA (site CTGGAAACTTC) | 1.89
36 | CTGGAAACATGGACCGGTTTTCCCGGTAATCCGTATTTGGA (site CTGGAAACTTG) | 0
37 | CTGGAAACATGGACCGGTTTTCCCGGTAATCCGTATTTGGA (site CTGGAAACTTT) | 2.09
38 | CTGGAGACATGGACCGGTTTTCCCGGTAATCCGTATTTGCA (site CTGGAAACTTG) | 2.32
39 | CTGGAGACATGGACCGGTTTTCCCGGTAATCCGTATTTGCA (site CTGGACACTTG) | 2.12
40 | CTGGAGACATGGACCGGTTTTCCCGGTAATCCGTATTTGCA (site CTGGAGACTTG) | 2.66
41 | CTGGAGACATGGACCGGTTTTCCCGGTAATCCGTATTTGCA (site CTGGATACTTG) | 1.03
42 | CTGGCAACATGGACCGGTTTTCCCGGTAATCCGTATTTGCA (site CTGGAAACTTG) | 0
43 | CTGGCAACATGGACCGGTTTTCCCGGTAATCCGTATTTGCA (site CTGGCAACTTG) | 1.01
44 | CTGGCAACATGGACCGGTTTTCCCGGTAATCCGTATTTGCA (site CTGGGAACTTG) | 0
45 | CTGGCAACATGGACCGGTTTTCCCGGTAATCCGTATTTGCA (site CTGGTAACTTG) | 0
46 | CTGGCACCATGGACCGGTTTTCCCGGTAATCCGTATTTGGC (site CTGGCACCTGC) | 0.523
47 | CTGGCTGCATGGACCGGTTTTCCCGGTAATCCGTATTTGCG (site CTGGCTGCTCG) | 0.887
48 | CTGGTACCATGGACCGGTTTTCCCGGTAATCCGTATTTGCT (site CTGATACCTAG) | 0
49 | CTGGTACCATGGACCGGTTTTCCCGGTAATCCGTATTTGCT (site CTGCTACCTAG) | 0
50 | CTGGTACCATGGACCGGTTTTCCCGGTAATCCGTATTTGCT (site CTGGTACCTAG) | 0
51 | CTGGTACCATGGACCGGTTTTCCCGGTAATCCGTATTTGCT (site CTGTTACCTAG) | 0
52 | CTGTAAACATGGACCGGTTTTCCCGGTAATCCGTATTTGCA (site CTGAAAACTTG) | 0
